According to PubChem BioAssay AID2060506 (Molecular Pharmacology Branch, DTP, NCI, 2025):

Tested on: 598228-144-R-J1-PDC complex spheroid viability
Assay: Anticancer human tumor 598228-144-R-J1-PDC patient-derived serous endometrial adenocarcinoma cell line growth inhibition [GQUAD]
Conditions: for IC50: curve of first compound; for viability, T/C: stronger effect = lower value
From the text: DNA G-quadruplex Stabilizer Agents in Combinations in Complex Spheroids
A high-throughput screen of multi-cell type tumor spheroids was designed to identify active combinations of DNA G-quadruplex stabilizer agents and targeted small molecules. Complex spheroids include a stromal component modeled by human endothelial cells (HUVEC) and fibroblasts modeled by human mesenchymal stem cells (MSCs). The concentration ranges selected for each drug and investigational agent were based upon clinically achievable concentrations if the clinical Cmax of the agent was known.
Compounds. The drugs and investigational agents: pidnarulex (CX-5461; NSC782164), APTO-253 (NSC789042), BRACO-19 (NSC847499), peposertib (NSC802822), ceralasertib (NSC780249), elimusertib (NSC800525), camonsertib (NSC841442), AZD-1390 (NSC803789), olaparib (NSC753686), talazoparib (NSC767125), ART-558 (NSC835418), sotorasib (NSC818433), MRTX-1133 (NSC836407), SN-38 (NSC673596), topotecan (NSC609699), etoposide (NSC141540), doxorubicin (NSC123127), gemcitabine (NSC613327), 5-fluorouracil (NSC19893), paclitaxel (NSC125973), vemurafenib (NSC761431), panobinostat (NSC761190), R-306465 (JNJ-16241199; NSC773264), adavosertib (NSC754352), TP-3654 (NSC805149), carboplatin (NSC241240), KSQ-4279 (NSC840948), and staurosporine (NSC755774) were obtained from the National Cancer Institute (NCI) Developmental Therapeutics Program Chemical Repository (34). The FDA-approved anticancer drug set is available from the NCI Developmental Therapeutics Program. […] The stock solutions were prepared in dimethyl sulfoxide (DMSO, Sigma-Aldrich, St. Louis, MO, cat. D2650) at 800-fold the tested concentration and stored at -70 degrees C prior to their use. All drugs and investigational agents were tested over a range starting from a high concentration at or near the clinical Cmax and decreasing in half-log increments. If the clinical Cmax for an agent had not been determined, the highest concentration tested was 10 microM.
2.3 Cell Culture. All cells were maintained in an incubator at 37 degrees C and 5% CO2 with 95% humidity. The PDC lines were cultured according to standard operating procedures established by the NCI PDMR. All PDCs were thawed and cultured in Matrigel-coated flasks prepared with a working solution of 1X Ham's F-12 nutrient mix, without supplementation (Invitrogen, cat. 11765054), 100 U/mL penicillin-streptomycin (Invitrogen, cat. 15140122), and 2.5% Matrigel (Corning Inc., cat. 354248) for the first three passages. The 857933-349-R-J2-PDC line was cultured in 6C/Colon 1B media, which includes advanced DMEM/F-12 (Thermo Fisher Scientific, cat. 12634028), 10 mM HEPES (Thermo Fisher Scientific, cat. 15630080), 1X GlutaMAX supplement (Thermo Fisher Scientific, cat. 35050061), 0.1 mg/mL primocin (InvivoGen, cat. ant-pm-2), 10% defined fetal bovine serum, heat inactivated (HyClone Laboratories Inc., cat. SH30070.03HI), 50% L-WRN conditioned media (ATCC, cat. CRL-3276), 1.25 mM N-Acetyl-L-cysteine (Sigma-Aldrich, cat. A9165), 10 mM nicotinamide (Sigma-Aldrich, cat. N0636), 1X B-27 supplement (Thermo Fisher Scientific, cat. 17504044), 1X N-2 supplement (Thermo Fisher Scientific, cat. 17502048), 10 microM Y-27632 dihydrochloride (Tocris Bioscience, cat. 1254), and 50 ng/mL human EGF recombinant protein (Thermo Fisher Scientific, cat. PHG0311). The 485176-168-R4-J1-PDC line was cultured in Panc media, which includes all 6C/Colon 1B media components plus 100 ng/mL human FGF-10 (Thermo Fisher Scientific, cat. 100-26), 500 nM SB-431542 (Selleckchem, cat. S1067), and gastrin (Tocris, cat. 3006).
[…]

[1] = second compound 0.0316 µM, first compound 0.0316 µM
[2] = second compound 0.0316 µM, first compound 0.316 µM
[3] = second compound 0.1 µM, first compound 0.0316 µM
[4] = second compound 0.1 µM, first compound 0.316 µM
[5] = second compound 0.316 µM, first compound 0.0316 µM
[6] = second compound 0.316 µM, first compound 0.316 µM
[7] = second compound 1 µM, first compound 0.0316 µM
[8] = second compound 1 µM, first compound 0.316 µM
[9] = second compound 3.16 µM, first compound 0.0316 µM
[10] = second compound 3.16 µM, first compound 0.316 µM
[11] = second compound 10 µM, first compound 0.0316 µM
[12] = second compound 10 µM, first compound 0.316 µM
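Note: spheroids exposed to the agents for one week before reading.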
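Throughout, for viability, T/C: percent of vehicle DMSO control viability so 100% = untreated growth.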

C#Cc1c(F)ccc2cc(O)cc(-c3ncc4c(N5CC6CCC(C5)N6)nc(OCC56CCCN5CC(F)C6)nc4c3F)c12 (centres undefined) + CN(C)c1ccc(Nc2c3ccc(NC(=O)CCN4CCCC4)cc3nc3cc(NC(=O)CCN4CCCC4)ccc23)cc1
IC50 (second compound 0.0316 µM): > 10000 nM
IC50 (second compound 0.1 µM): > 10000 nM
IC50 (second compound 0.316 µM): > 10000 nM
IC50 (second compound 1 µM): > 10000 nM
IC50 (second compound 3.16 µM): > 10000 nM
IC50 (second compound 10 µM): 4610 nM
viability, T/C [1]: 92.2%
viability, T/C (second compound 0.0316 µM, first compound 0.1 µM): 104%
viability, T/C [2]: 104%
viability, T/C (second compound 0.0316 µM, first compound 1 µM): 88.5%
viability, T/C (second compound 0.0316 µM, first compound 3.16 µM): 88.9%
viability, T/C (second compound 0.0316 µM, first compound 10 µM): 101%
viability, T/C [3]: 103%
viability, T/C (second compound 0.1 µM, first compound 0.1 µM): 118%
viability, T/C [4]: 104%
viability, T/C (second compound 0.1 µM, first compound 1 µM): 100%
viability, T/C (second compound 0.1 µM, first compound 3.16 µM): 88.5%
viability, T/C (second compound 0.1 µM, first compound 10 µM): 94.9%
viability, T/C [5]: 102%
viability, T/C (second compound 0.316 µM, first compound 0.1 µM): 94.1%
viability, T/C [6]: 115%
viability, T/C (second compound 0.316 µM, first compound 1 µM): 83.5%
viability, T/C (second compound 0.316 µM, first compound 3.16 µM): 102%
viability, T/C (second compound 0.316 µM, first compound 10 µM): 88%
viability, T/C [7]: 87%
viability, T/C (second compound 1 µM, first compound 0.1 µM): 102%
viability, T/C [8]: 110%
viability, T/C (second compound 1 µM, first compound 1 µM): 104%
viability, T/C (second compound 1 µM, first compound 3.16 µM): 98.9%
viability, T/C (second compound 1 µM, first compound 10 µM): 92.9%
viability, T/C [9]: 106%
viability, T/C (second compound 3.16 µM, first compound 0.1 µM): 101%
viability, T/C [10]: 93.7%
viability, T/C (second compound 3.16 µM, first compound 1 µM): 89.8%
viability, T/C (second compound 3.16 µM, first compound 3.16 µM): 83.3%
viability, T/C (second compound 3.16 µM, first compound 10 µM): 84.1%
viability, T/C [11]: 86.1%
viability, T/C (second compound 10 µM, first compound 0.1 µM): 89.3%
viability, T/C [12]: 93.9%
viability, T/C (second compound 10 µM, first compound 1 µM): 66%
viability, T/C (second compound 10 µM, first compound 3.16 µM): 64.2%
viability, T/C (second compound 10 µM, first compound 10 µM): 28.7%

CC[C@@]1(O)C(=O)OCc2c1cc1n(c2=O)Cc2cc3c(CN(C)C)c(O)ccc3nc2-1 + CN(C)c1ccc(Nc2c3ccc(NC(=O)CCN4CCCC4)cc3nc3cc(NC(=O)CCN4CCCC4)ccc23)cc1
IC50 (second compound 0.0316 µM): > 316 nM
IC50 (second compound 0.1 µM): > 316 nM
IC50 (second compound 0.316 µM): 97.7 nM
IC50 (second compound 1 µM): 87 nM
IC50 (second compound 3.16 µM): 225 nM
IC50 (second compound 10 µM): 75.7 nM
viability, T/C (second compound 0.0316 µM, first compound 0.000999 µM): 84.4%
viability, T/C (second compound 0.0316 µM, first compound 0.00316 µM): 84.2%
viability, T/C (second compound 0.0316 µM, first compound 0.00999 µM): 105%
viability, T/C [1]: 91.4%
viability, T/C (second compound 0.0316 µM, first compound 0.0999 µM): 54.6%
viability, T/C [2]: 59.4%
viability, T/C (second compound 0.1 µM, first compound 0.000999 µM): 99.4%
viability, T/C (second compound 0.1 µM, first compound 0.00316 µM): 95.9%
viability, T/C (second compound 0.1 µM, first compound 0.00999 µM): 95.3%
viability, T/C [3]: 75.5%
viability, T/C (second compound 0.1 µM, first compound 0.0999 µM): 56.6%
viability, T/C [4]: 56.5%
viability, T/C (second compound 0.316 µM, first compound 0.000999 µM): 95.8%
viability, T/C (second compound 0.316 µM, first compound 0.00316 µM): 104%
viability, T/C (second compound 0.316 µM, first compound 0.00999 µM): 101%
viability, T/C [5]: 72.8%
viability, T/C (second compound 0.316 µM, first compound 0.0999 µM): 48.5%
viability, T/C [6]: 50.5%
viability, T/C (second compound 1 µM, first compound 0.000999 µM): 84.3%
viability, T/C (second compound 1 µM, first compound 0.00316 µM): 91.8%
viability, T/C (second compound 1 µM, first compound 0.00999 µM): 92%
viability, T/C [7]: 102%
viability, T/C (second compound 1 µM, first compound 0.0999 µM): 42.6%
viability, T/C [8]: 45.8%
viability, T/C (second compound 3.16 µM, first compound 0.000999 µM): 97.8%
viability, T/C (second compound 3.16 µM, first compound 0.00316 µM): 89.9%
viability, T/C (second compound 3.16 µM, first compound 0.00999 µM): 86.4%
viability, T/C [9]: 94.6%
viability, T/C (second compound 3.16 µM, first compound 0.0999 µM): 57.5%
viability, T/C [10]: 46.8%
viability, T/C (second compound 10 µM, first compound 0.000999 µM): 66.9%
viability, T/C (second compound 10 µM, first compound 0.00316 µM): 90.9%
viability, T/C (second compound 10 µM, first compound 0.00999 µM): 81.5%
viability, T/C [11]: 62.6%
viability, T/C (second compound 10 µM, first compound 0.0999 µM): 48.5%
viability, T/C [12]: 42.3%
